Laboratory results as given in patent US7951772B2, “Tumor-activated prodrug compounds and treatment” (La Region Wallonne, priority 1994, dated 2011).
In brackets after ≈: the same amount, converted by molar mass. Several values for one entry are separate records, joined by “and”; a condition that tells them apart may be missing. Equal values may be shown once. Read-outs that look alike come from different tables or passages of the source. Blank lines part the entries; values can stand above or below the compound they belong to. Square brackets hold non-standard residues; d marks the D form. Peptide text beside a SMILES is read from it. * marks the point of attachment. X1 = COc1cccc2c1C(=O)c1c(O)c3c(c(O)c1C2=O)CC(O)(C(=O)CO)CC3OC1CC(N*)C(O)C(C)O1; pGlu = O=C1CC[CH](C(=O)O)N1

Assays:
[1] = system: conditioned medium from MCF7/6 mammary carcinoma cells
[2] = system: conditioned medium from MCF7/6 mammary carcinoma cells; assay: Degradation in conditioned medium from MCF7/6 mammary carcinoma cells (HPLC)
[3] = system: MCF7/6 human mammary carcinoma cells; assay: Accumulation in MCF7/6 tumor cells (HPLC of cell extracts)
Method: After various times, the accumulation of the prodrugs and of their fluorescent metabolites were determined by HPLC after extraction of the products at basic pH according to a method developed in the laboratory. Accumulations, expressed in μg/mg of cellular proteins, were compared with those of DNR and of DOX as well as with those of L-Leu-DNR and L-Leu-DOX. The metabolites were identified by determining the retention times of reference products synthesized in the laboratory.
(§7) After various times, the accumulation of the prodrugs and of their fluorescent metabolites was determined by HPLC after extraction of the products at basic pH according to a method developed in the laboratory. Accumulations, expressed in μg/mg of cellular proteins, were compared with those of DOX and of L-Leu-DOX. The metabolites were identified by determining the retention times of reference products synthesized in the laboratory.

MRC5 fibroblast cells [4] = assay: Accumulation in MRC5 normal fibroblast cells (HPLC of cell extracts); conditions: for Accumulation after 6 h, DOX / Accumulation after 6 h, Leu-DOX: 10 μg eq. DOX/ml
Method: At various times, the accumulation of the prodrugs and of their fluorescent metabolites was determined by HPLC after extraction of the products at basic pH according to a method developed in the laboratory. Accumulations, expressed in μg/mg of cellular proteins, were compared with those of DNR and of L-Leu-DNR. The metabolites were identified by determining the retention times of reference products synthesized in the laboratory.
as §7

MRC5 fibroblast cells [5] = assay: Cytotoxicity with respect to MRC5 normal cells (72 h, Bradford protein); conditions: for IC50: Homo sapiens
[6] = system: MCF7/6 human mammary carcinoma cells; assay: Cytotoxicity with respect to MCF7/6 tumor cells (72 h, Bradford protein); conditions: for IC50: Homo sapiens
female NMRI mice [7] = assay: In vivo acute toxicity, intraperitoneal route, 5 consecutive days; set-up: species or system mouse; conditions: i.p. on 5 consecutive days
Method: (§1) In the in vivo study of the acute toxicity of a medicinal product, determination of the median lethal dose (lethal dose for 50% of the animals or LD50) occupies an important place. […] The LD50 is a simple test in which increasing amounts of the test product are administered intravenously (i.v.) in a single injection and intraperitoneally (i.p.) in 5 injections, one injection daily for 5 consecutive days. The mortality of the animals is monitored as a function of time. At the end of the observation period, usually 30 days, the value of the LD50 is obtained by linear regression of the percentage mortality (on a probit scale) as a function of the logarithm of the dose administered (O. K. Chan and A. W. Hayes, Principles and methods for acute toxicity and eye irritancy, in Principles and methods of toxicology, Second edition. Ed. by A. W. Hayes, Raven Press, New York, USA (1989), pp. 169-220; D. Deprez-De Campeneere and A. Trouet. DNA-Anthracycline Complexes. I. Toxicity in mice and chemotherapeutic activity against L1210 Leukaemia off Daunorubicin-DNA and Adriamycin-DNA, Eur. J. Cancer, 16 (1980), pp. 981-986; H. E. Skipper, L. H. Schmidt, A. Goldin and J. M. Venditti. A manual on quantitative drug evaluation in experimental tumor systems, Cancer Chemother. Rep. 17 (1.962), pp. 1-178).
(§2) The acute toxicity of these two drugs was studied via the i.v. and i.p. routes on a single strain of mouse. Female NMRI mice (nonconsanguineous SPF-Han, approximately 5 weeks old and of mean weight 14.6 grams, supplied by IFFA-CREDO Belgium) remained in quarantine for one week.
(§3) Injections were performed systematically in the morning (single injection into the caudal vein for the i.v. route and injections on 5 consecutive days into the peritoneum for the i.p. route), using 1.0 ml syringes and sterile 30 G (i.v.) and 27 G (i.p) needles. All handling of animals was performed with gloves, and maintenance of the animals was performed systematically every week.
(§4) DNR was injected i.v. at doses of 10, 15, 20, 25, 30 and 35 mg/kg and i.p. at doses of 2.0; 2.5; 3.0 and 3.5 mg/kg.
(§5) The concentrations of the solutions were verified by spectrophotometry.
(§6) From the day of injection (DO) onwards, the mice were monitored clinically, with a daily record of dead mice. The weight of the mice was measured almost every day. The observation period was extended beyond one month so that the signs of late toxicity could be spotted more readily. At the end of the study, the surviving mice were sacrificed, according to the standards pertaining to animal experiments (D. B. McGregor. Ethics in experiments on animals, in Experiments in toxicology, First edition. Ed. by D. Anderson and D. M. Conning. The Royal Society of Chemistry and The Universities Press. Belfast, Ireland (1988), pp. 512-522).

female NMRI mice [8] = assay: In vivo acute toxicity, intravenous route; set-up: species or system mouse
Method: as §1, §2, §3, §4, §5, §6

[9] = system: conditioned medium from HepG2 hepatocarcinoma cells; assay: Degradation in conditioned medium from HepG2 hepatocarcinoma cells; conditions: β-Ala-Leu-Ala-Leu-DNR incubated at 37 C for 2 hours in HepG2 conditioned medium
[10] = β-Ala-Leu-Ala-Leu-DOX incubated at 37 C in MCF7/6 conditioned medium concentrated 20 times, share of each species

- Hydrolysis, MCF-7/6 Conditioned Medium [1]: −
Compound: COc1cccc2c1C(=O)c1c(O)c3c(c(O)c1C2=O)CC(O)(C(C)=O)CC3OC1CC(NC(=O)C(CC(C)C)NC(=O)C(C)NC(=O)C(CC(C)C)NC(=O)C(C)NC(=O)CCC(=O)O)C(O)C(C)O1 [Succ-L-Ala-L-Leu-L-Ala-L-Leu-DNR]

- Starting material or Metabolite, After 2 hours [2, 10]: <1%
- Starting material or Metabolite, Time 0 [2, 10]: 0%
Compound: COc1cccc2c1C(=O)c1c(O)c3c(c(O)c1C2=O)C[C@@](O)(C(=O)CO)C[C@@H]3O[C@H]1C[C@H](NC(=O)[C@H](CC(C)C)NC(=O)[C@H](C)NC(=O)[C@@H](N)CC(C)C)[C@H](O)[C@H](C)O1 [L-Leu-L-Ala-L-Leu-DOX]

- Hydrolysis, MCF-7/6 Conditioned Medium [1]: +
Compound: β-Ala-L-Leu-L-Ala-L-Leu-COU

- Hydrolysis, MCF-7/6 Conditioned Medium [1]: +
Compound: COc1cccc2c1C(=O)c1c(O)c3c(c(O)c1C2=O)CC(O)(C(C)=O)CC3OC1CC(NC(=O)C(CC(C)C)NC(=O)C(C)NC(=O)C(CC(C)C)NC(=O)C(C)NC(=O)C(N)CC(C)C)C(O)C(C)O1 [D-Leu-L-Ala-L-Leu-L-Ala-L-Leu-DNR]

- Accumulation after 6 h, DOX ([3]; MCF7/6 cells, 10 μg eq. DOX/ml): 0.25 μg/mg cellular prot.
- Accumulation after 6 h, Leu-DOX ([3]; MCF7/6 cells, 10 μg eq. DOX/ml): 1.10 μg/mg cellular prot.
- accumulation, times less than DOX ([3]; MCF7/6 cells, after 6 hours): 6 times
- Accumulation after 6 h, DOX (MRC5 fibroblast cells [4]; MRC5 cells): 0.3 μg/mg cellular prot.
- Accumulation after 6 h, Leu-DOX (MRC5 fibroblast cells [4]; MRC5 cells): 1.4 μg/mg cellular prot.
- Accumulation after 6 h, DOX (MRC5 fibroblast cells [4]; MRC5 cells, listed as Leu-DOX): 0.30 μg/mg cellular prot.
- Accumulation after 6 h, Leu-DOX (MRC5 fibroblast cells [4]; MRC5 cells, listed as Leu-DOX): 1.40 μg/mg cellular prot.
- Starting material or Metabolite, After 2 hours [2, 10]: 68%
- Starting material or Metabolite, Time 0 [2, 10]: 0%
Compound: COc1cccc2c1C(=O)c1c(O)c3c(c(O)c1C2=O)C[C@@](O)(C(=O)CO)C[C@@H]3O[C@H]1C[C@H](NC(=O)[C@@H](N)CC(C)C)[C@H](O)[C@H](C)O1 [L-Leu-DOX, N-L-leucyldoxorubicin]
- IC50 (72 h) (MRC5 fibroblast cells [5]; MRC5 cells): 0.30 µg/mL (≈ 0.457 µM)
- times less cytotoxic than DOX (MRC5 fibroblast cells [5]; MRC5 cells, 72 hours): 17 times
- IC50 (72 h) ([6]; MCF7/6 cells): 0.020 µg/mL (≈ 0.0305 µM)
- times less cytotoxic than DOX ([6]; MCF7/6 cells, 72 hours): 8 times

- Accumulation after 6 h, DOX (MRC5 fibroblast cells [4]; MRC5 cells): 11.20 μg/mg cellular prot.
- intracellular levels of the active therapeutic agent in normal cells compared with tumor cells (MRC5 fibroblast cells [4]; MRC5 versus MCF7/6, 6 h incubation): twice as high
Compound: COc1cccc2c1C(=O)c1c(O)c3c(c(O)c1C2=O)C[C@@](O)(C(=O)CO)C[C@@H]3O[C@H]1C[C@H](N)[C@H](O)[C@H](C)O1 [DOX, doxorubicin]
- Accumulation after 6 h, DOX ([3]; MCF7/6 cells, 10 μg eq. DOX/ml): 6.9 μg/mg cellular prot. and 6.90 μg/mg cellular prot.
- IC50 (MRC5 fibroblast cells [5]; MRC5, 72 h, read-out: IC50 (72 h)): 0.018 µg/mL (≈ 0.0331 µM)
- IC50 ([6]; MCF7/6, 72 h, read-out: IC50 (72 h)): 0.0025 µg/mL (≈ 0.0046 µM)

- Starting material or Metabolite, After 2 hours [2, 10]: <1%
- Starting material or Metabolite, Time 0 [2, 10]: 0%
Compound: COc1cccc2c1C(=O)c1c(O)c3c(c(O)c1C2=O)CC(O)(C(=O)CO)CC3OC1CC(NC(=O)C(CC(C)C)NC(=O)C(C)N)C(O)C(C)O1 [L-Ala-L-Leu-DOX]

- Hydrolysis, MCF-7/6 Conditioned Medium [1]: +
Compound: COc1cccc2c1C(=O)c1c(O)c3c(c(O)c1C2=O)CC(O)(C(C)=O)CC3OC1CC(NC(=O)C(CC(C)C)NC(=O)C(C)NC(=O)C(CC(C)C)NC(=O)C(C)N)C(O)C(C)O1 [L-Ala-L-Leu-L-Ala-L-Leu-DNR]

- Hydrolysis, MCF-7/6 Conditioned Medium [1]: +
Compound: COc1cccc2c1C(=O)c1c(O)c3c(c(O)c1C2=O)CC(O)(C(C)=O)CC3OC1CC(NC(=O)C(CC(C)C)NC(=O)CNC(=O)C(CC(C)C)NC(=O)CN)C(O)C(C)O1 [Gly-L-Leu-Gly-L-Leu-DNR]

- Hydrolysis, MCF-7/6 Conditioned Medium [1]: −
Compound: COc1cccc2c1C(=O)c1c(O)c3c(c(O)c1C2=O)CC(O)(C(=O)CO)CC3OC1CC(NC(=O)C(CC(C)C)NC(=O)C(C)NC(=O)C(CC(C)C)NC(=O)C(C)NC(=O)C2CCC(=O)N2)C(O)C(C)O1 [pGlu-L-Ala-L-Leu-L-Ala-L-Leu-DOX] ([pGlu]ALAL-X1; configuration not given here)

Compound: COc1cccc2c1C(=O)c1c(O)c3c(c(O)c1C2=O)C[C@@](O)(C(C)=O)C[C@@H]3O[C@H]1C[C@H](N)[C@H](O)[C@H](C)O1 [DNR, daunorubicin]
- day on which no mouse is surviving (female NMRI mice [7]; 2.0 mg/kg): 29 days
- mice dead out of 7 at first mortality (female NMRI mice [7]; 2.0 mg/kg, day 11): 1
- mice surviving on day 43 (female NMRI mice [7]; 2.5 mg/kg): one
- mice dead out of 7 at first mortality (female NMRI mice [7]; 2.5 mg/kg, day 11): 2
- day on which no mouse is surviving (female NMRI mice [7]; 3.0 mg/kg): 19 days
- mice dead out of 7 at first mortality (female NMRI mice [7]; 3.0 mg/kg, day 9): 2
- day on which no mouse is surviving (female NMRI mice [7]; 3.5 mg/kg): 12 days
- mice dead out of 7 at first mortality (female NMRI mice [7]; 3.5 mg/kg, day 7): 1
- mortality from day (female NMRI mice [7]; dose of 2.0 mg/kg): 11 days
- mortality from day (female NMRI mice [7]; dose of 2.5 mg/kg): 11 days
- mortality from day (female NMRI mice [7]; dose of 3.0 mg/kg): 9 days
- mortality from day (female NMRI mice [7]; dose of 3.5 mg/kg): 7 days
- weight loss, % of the initial weight (female NMRI mice [7]; irrespective of the dose (2.0-3.5 mg/kg)): 30%
- mice dying (female NMRI mice [8]; single i.v., 25 mg/kg, groups of 7, days 12 to 42): 6
- mortality begins on day (female NMRI mice [8]; single i.v., 30 mg/kg): 7 days
- mice dead out of 7 at first mortality (female NMRI mice [8]; single i.v., 30 mg/kg, day 7): 1
- mortality begins on day (female NMRI mice [8]; single i.v., 35 mg/kg): 6 days
- mice dead out of 7 at first mortality (female NMRI mice [8]; single i.v., 35 mg/kg, day 6): 2
- mortality (female NMRI mice [8]; single i.v., 10, 15 and 20 mg/kg): no mortality
- day of maximal mean weight loss (female NMRI mice [8]; single i.v., 10-35 mg/kg): 7 days
- weight recovery of surviving mice (female NMRI mice [8]; single i.v., 30 and 35 mg/kg, 30 days after injection): do not recover their initial weight
- maximum accumulation ([3]; MCF7/6 cells, 10 μg/ml, after 6 hours of incubation): ~15 μg/mg of cellular proteins
- Intracellular concentration, Starting material ([3]; MCF7/6 cells, 6 hours of incubation, 10 μg eq. DNR/ml): 14.9 μg/mg cellular proteins
- ratio of the intracellular DNR levels (MCF7/6 to MRC5) ([3]; cells incubated in the presence of the compound): 0.19
- accumulation plateau (MRC5 fibroblast cells [4]; MRC5 cells, 10 μg/ml, after 6 hours): ~76 μg/mg of cellular proteins
- Intracellular concentration, Starting material (MRC5 fibroblast cells [4]; MRC5 cells, 6 hours of incubation, 10 μg eq. DNR/ml): 77.4 μg/mg cellular proteins
- IC50 (MRC5 fibroblast cells [5]; MRC5): 0.01 ± 0.006 µg/mL (≈ 0.019 µM)
- IC50 ([6]; MCF7/6): 0.09 ± 0.004 µg/mL (≈ 0.171 µM)

- main metabolites found, % of the total fluorescence [9]: 8%
- Starting material or Metabolite, Time 0 ([2]; β-Ala-Leu-Ala-Leu-DNR incubated at 37 C in MCF7/6 conditioned medium concentrated 20 of 40 times, share of each species by HPLC): 0%
- Starting material or Metabolite, After 1 hour ([2]; β-Ala-Leu-Ala-Leu-DNR incubated at 37 C in MCF7/6 conditioned medium, share of each species by HPLC, 1 hour): <1%
- Starting material or Metabolite, After 2 hours ([2]; β-Ala-Leu-Ala-Leu-DNR incubated at 37 C in MCF7/6 conditioned medium, share of each species by HPLC): <1%
Compound: COc1cccc2c1C(=O)c1c(O)c3c(c(O)c1C2=O)C[C@@](O)(C(C)=O)C[C@@H]3O[C@H]1C[C@H](NC(=O)[C@H](CC(C)C)NC(=O)[C@H](C)N)[C@H](O)[C@H](C)O1 [L-Ala-L-Leu-DNR]
